Here are results for seven molecules from paper PMC11604048, “Constrained TACC3 peptidomimetics for a non-canonical protein–protein interface elucidate allosteric communication in Aurora-A kinase” (Chemical Science, 2024).

The target of this test is T1, Aurora-A122-403-C290A/C393A (Homo sapiens, UniProt O14965, C290A/C393A).
T1 construct: Human Aurora-A kinase domain 122-403 wild-type or C290A/ C393A mutant; His tag (pET30TEV vector) (N, cleaved yes); made in house; host or cells: E. coli RIL, co-expressed with lambda phosphatase (Aurora-A); tracer by solid phase synthesis
T1 sequence (O14965 122-403 C290A/C393A): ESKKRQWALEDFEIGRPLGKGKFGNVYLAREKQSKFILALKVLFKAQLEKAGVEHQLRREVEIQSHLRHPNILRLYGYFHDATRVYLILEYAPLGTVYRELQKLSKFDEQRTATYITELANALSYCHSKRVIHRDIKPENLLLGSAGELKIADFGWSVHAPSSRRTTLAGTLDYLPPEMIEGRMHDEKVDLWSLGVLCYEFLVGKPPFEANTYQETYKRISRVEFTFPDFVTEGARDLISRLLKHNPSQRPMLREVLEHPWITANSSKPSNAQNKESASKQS
The test is described as follows: Competition FA assay against FAM-Ahx-TACC3 522-536 tracer. It is filed as binding. On the procedure: Once completed, the mixtures were transferred into SPPS fritted reaction vessels and washed with H2O (5X, 10 mL, 2 min), DMF (5X, 5mL, 2 min) and DCM (5X, 5 mL, 2 min). The clean resins were dried under vacuum and the cyclic peptides cleaved from the resin following the general procedures described in previous sections. After Et2O precipitation, the crude materials were freeze-dried and redissolved in H2O/MeCN/TFA 90/10/0.1% v/v for preparative HPLC purification.
All disulfide peptide variants (ox) were produced in situ from their free-thiol solid precursors. For this, 2 mg of the pure peptide materials were dissolved in aqueous DMSO 33% v/v to a 10 mM concentration and were left open to air oxidation at room temperature overnight. […]
the peptides were employed for FA competition assays and IC50 evaluation without further additional […]
Fluorescence anisotropy (FA) assays – General information.
All assays were performed using 384-well plates(Greiner Bio-one, UK). […]
produced as described previously.11 All samples were prepared in 25 mM Tris,150 mM NaCl, 5 mM MgCl2, pH= 7.5, unless otherwise stated, and tested in triplicate using an EnVisionTM 2103 MultiLabel plate reader (PerkinElmer; Waltham, MA, USA).The parameters were set as follows: Excitation wavelength = 480 nm (30 nm bandwidth) and emission wavelength = 535 nm (30 nm bandwidth). Measured data were processed and analysed as previously described.12 Specifically, the perpendicular intensity (P) and parallel intensity (S) were subtracted by the control values and used for calculations of intensity and anisotropy using the following Equations 1, 2, 3, 4, and 5:
I= (2PG) + S Eq. (SI − 5)
r = (S − PG) Eq. (SI − 6)
L = r − r௠௜௡ Eq. (SI − 7)
y = (k + x + [FL]) − ඥ(k + x + [FL]2 − 4 ∗ x ∗ [FL]) Eq. (SI − 8)
y = r + r௠௜௡ − r௠௔௫ Eq. (SI − 9)
Where I = total intensity; P = perpendicular intensity; S = parallel intensity; G = instrument factor; r = anisotropy; Lb = ligand bound fraction; λ = change in intensity between bound and unbound states which […]
FA direct binding assays. […]
starting from 700 μM, diluted over 24 points in a 1/2 regime using the FAM-Ahx-labeled peptides at a final fixed concentration of 50 nM per well.
FA competition assays were performed using the same plates and buffer as described above, with the initial […]
14 points in a 1/2 regime. […]
after 4 h of incubation to enable appropriate sample equilibration. To prevent sample oxidation, when sulfhydryl peptides were analyzed DTT was added to the buffer (5 mM). In competition mode, the average anisotropy and the average standard deviation of the values derived from equation SI-6 were calculated and fit to a sigmoidal logistic model (equation SI-9) using Origin 2021. When using peptides for which full […]
For consistency, all the data […]
indicating the corresponding SD. […]

Where [1] appears, read: as E1, oxidised (disulfide) species made in situ from 10 mM stock in aqueous DMSO 33% v/v, air, overnight, WT control (+DMSO) given the same DMSO incubation, mean ± SD, n = 3, read-out: IC50 (ox).

Each structure is given as a SMILES string. Like-named read-outs stand apart in the source and are kept apart here. *1 amine or outer side, *2 acyl side, *3 side chain or, on linkers, in order; H or OH if unused. Where a SMILES comes first, the peptide text is derived from it. Bridges are numbered along the chain shown (N, C = ends). Maleimide(3,4-diyl) = O=C1NC(=O)C([*:2])=C1[*:1]

For `CC(=O)N[C@@H](CCC(=O)O)C(=O)N[C@@H](CCC(=O)O)C(=O)N[C@@H](CO)C(=O)N[C@@H](Cc1ccccc1)C(=O)N[C@@H](CCCNC(=N)N)C(=O)N[C@@H](CC(=O)O)C(=O)N1CCC[C@H]1C(=O)N[C@H]1CSSC[C@@H](C(=O)NCC(=O)N[C@H](C(=O)NCC(=O)N[C@@H](C)C(N)=O)[C@@H](C)O)NC(=O)[C@H](C(C)C)NC(=O)[C@H](CCC(=O)O)NC1=O` [TACC3 522-536 A529C/L532C (ox)] (Ac-EESFRDPCEVCGTGA-NH2; disulfide 8-11), under setting [1], the IC50 was at least 500 µM.
On to `CC(=O)N[C@@H](CCC(=O)O)C(=O)N[C@@H](CCC(=O)O)C(=O)N[C@@H](CO)C(=O)N[C@@H](Cc1ccccc1)C(=O)N[C@@H](CCCNC(=N)N)C(=O)N[C@@H](CC(=O)O)C(=O)N1CCC[C@H]1C(=O)N[C@@H](C)C(=O)N[C@@H](CCC(=O)O)C(=O)N[C@H](C(=O)N[C@H]1CSSC[C@@H](C(=O)N[C@@H](C)C(N)=O)NC(=O)[C@H]([C@@H](C)O)NC(=O)CNC1=O)C(C)C` [TACC3 522-536 L532C/G535C (ox)] (Ac-EESFRDPAEVCGTCA-NH2; disulfide 11-14), for which, under setting [1], the IC50 is at least 500 µM.
Take `CC(=O)N[C@@H](CCC(=O)O)C(=O)N[C@@H](CCC(=O)O)C(=O)N[C@@H](CO)C(=O)N[C@@H](Cc1ccccc1)C(=O)N[C@@H](CCCNC(=N)N)C(=O)N[C@@H](CC(=O)O)C(=O)N[C@@H](CS)C(=O)N[C@@H](C)C(=O)N[C@@H](CCC(=O)O)C(=O)N[C@@H](CS)C(=O)N[C@@H](CC(C)C)C(=O)NCC(=O)N[C@H](C(=O)NCC(=O)N[C@@H](C)C(N)=O)[C@@H](C)O` [TACC3 522-536 P528C/V531C (red)] (Ac-EESFRDCAECLGTGA-NH2): for the setting “as E1, free-sulfhydryl (reduced) species, DTT 5 mM in buffer, WT control (+DTT), mean ± SD, n = 3, read-out: IC50 (red)”, the IC50 was at least 500 µM.
On to `CC(=O)N[C@@H](CCC(=O)O)C(=O)N[C@@H](CCC(=O)O)C(=O)N[C@@H](CO)C(=O)N[C@@H](Cc1ccccc1)C(=O)N[C@@H](CCCNC(=N)N)C(=O)N[C@@H](CC(=O)O)C(=O)N1CCC[C@H]1C(=O)N[C@@H](C)C(=O)N[C@@H](CCC(=O)O)C(=O)N[C@H](C(=O)N[C@@H](CC(C)C)C(=O)N[C@H]1CSC2=C(SC[C@@H](C(N)=O)NC(=O)CNC(=O)[C@H]([C@@H](C)O)NC1=O)C(=O)NC2=O)C(C)C` [TACC3 522-536 G533C/A536C (mal)] (Ac-EESFRDPAEVLCTGC-NH2; linker 12-15 via Maleimide(3,4-diyl)), for which, for the setting “as E1, Table S3 (mal): maleimide-constrained species, WT value is an individual replica control assay, mean ± SD, n = 3, read-out: IC50 (mal)”, the IC50 was at least 500 µM.
For `CC(=O)N[C@@H](CCC(=O)O)C(=O)N[C@@H](CCC(=O)O)C(=O)N[C@@H](CO)C(=O)N[C@@H](Cc1ccccc1)C(=O)N[C@H]1CSSC[C@@H](C(=O)N[C@@H](CCC(=O)O)C(=O)N[C@H](C(=O)N[C@@H](CC(C)C)C(=O)NCC(=O)N[C@H](C(=O)NCC(=O)N[C@@H](C)C(N)=O)[C@@H](C)O)C(C)C)NC(=O)[C@@H]2CCCN2C(=O)[C@H](CC(=O)O)NC1=O` [TACC3 522-536 R526C/A529C (ox)] (Ac-EESFCDPCEVLGTGA-NH2; disulfide 5-8), the IC50 under setting [1] was at least 500 µM.
The same measure, in the same setting: under `CC(=O)N[C@@H](CCC(=O)O)C(=O)N[C@@H](CCC(=O)O)C(=O)N[C@@H](CO)C(=O)N[C@@H](Cc1ccccc1)C(=O)N[C@@H](CCCNC(=N)N)C(=O)N[C@@H](CC(=O)O)C(=O)N[C@H]1CSSC[C@@H](C(=O)N[C@@H](CC(C)C)C(=O)NCC(=O)N[C@H](C(=O)NCC(=O)N[C@@H](C)C(N)=O)[C@@H](C)O)NC(=O)[C@H](CCC(=O)O)NC(=O)[C@H](C)NC1=O` [TACC3 522-536 P528C/V531C (ox)] (Ac-EESFRDCAECLGTGA-NH2; disulfide 7-10) stands at least 500 µM.
`CC(=O)N[C@@H](CCC(=O)O)C(=O)N[C@@H](CCC(=O)O)C(=O)N[C@@H](CO)C(=O)N[C@@H](Cc1ccc(Br)cc1)C(=O)N[C@@H](CCCNC(=N)N)C(=O)N[C@@H](CC(=O)O)C(=O)N1CCC[C@H]1C(=O)N[C@@H](C)C(=O)N[C@@H](CCC(=O)O)C(=O)N[C@H](C(=O)N[C@@H](CC(C)C)C(=O)NCC(=O)N[C@H](C(=O)NCC(=O)N[C@@H](C)C(N)=O)[C@@H](C)O)C(C)C` [TACC3 522-536_(4-Br)525F]: under “SD, read-out: IC50”, the IC50 came out at 34 ± 6 µM.
